A word on the inhibition: it is the share of the control response that was lost under treatment. A higher inhibition goes with a strong effect.

The results in this text go back to patent publication US20120270237A9, “METHODS FOR THE IDENTIFICATION OF KINASE INTERACTING MOLECULES AND FOR THE PURIFICATION OF KINASE PROTEINS” (Cellzone AG, priority 2009, published 2012).

Assay in all cases: Kinobeads competition binding, HL60 cell lysate
Common to all, as to parameters: endogenous in cells
Common to all, as to conditions: 10 μM free compound

The target in assay [1] is CaMKK2 (Homo sapiens, UniProt Q96RR4). In outline:
(§1)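 Two aliquots of HL60 cell lysate were used, one spiked with 10 μM compound and one with 0.5% DMSO, before pull-down on immobilized-compound beads (50 mg protein, 2 h, 4 °C). Bound proteins were digested and labeled with different iTRAQ reagents. Combined peptides were analysed by LC-MS/MS.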

Assay [2] has as its target RSK2 (Homo sapiens, UniProt P51812). In a few lines:
as §1

Assay [3] concerns the target MAP3K4 (Homo sapiens, UniProt Q9Y6R4). In a few lines: as §1
The target in assay [4] is T1, TBK1 (Homo sapiens, UniProt Q9UHD2).
T1 sequence (Q9UHD2 1-729): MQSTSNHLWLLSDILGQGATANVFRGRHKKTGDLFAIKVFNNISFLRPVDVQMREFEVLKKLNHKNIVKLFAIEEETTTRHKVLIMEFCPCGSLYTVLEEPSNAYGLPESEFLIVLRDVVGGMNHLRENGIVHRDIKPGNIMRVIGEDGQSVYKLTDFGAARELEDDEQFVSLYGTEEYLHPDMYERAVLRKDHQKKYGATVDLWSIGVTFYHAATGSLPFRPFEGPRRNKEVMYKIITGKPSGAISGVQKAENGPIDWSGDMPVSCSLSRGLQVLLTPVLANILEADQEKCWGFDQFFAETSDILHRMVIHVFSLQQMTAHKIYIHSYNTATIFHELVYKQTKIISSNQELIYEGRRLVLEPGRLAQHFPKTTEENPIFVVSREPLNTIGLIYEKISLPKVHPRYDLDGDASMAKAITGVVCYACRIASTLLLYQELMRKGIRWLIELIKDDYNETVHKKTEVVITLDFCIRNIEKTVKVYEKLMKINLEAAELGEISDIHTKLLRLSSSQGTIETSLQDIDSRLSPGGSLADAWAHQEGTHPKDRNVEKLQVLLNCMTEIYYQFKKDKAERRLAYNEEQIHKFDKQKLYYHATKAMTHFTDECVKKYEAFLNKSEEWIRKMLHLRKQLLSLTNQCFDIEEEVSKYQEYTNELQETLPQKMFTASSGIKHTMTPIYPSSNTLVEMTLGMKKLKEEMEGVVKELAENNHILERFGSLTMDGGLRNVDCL
In outline:
as §1

In assay [5] the target is MARK3 (Homo sapiens, UniProt P27448). In outline: as §1
Assay [6] addresses T2, PIP5K2A (Homo sapiens, UniProt P48426).
T2 sequence (P48426 1-406): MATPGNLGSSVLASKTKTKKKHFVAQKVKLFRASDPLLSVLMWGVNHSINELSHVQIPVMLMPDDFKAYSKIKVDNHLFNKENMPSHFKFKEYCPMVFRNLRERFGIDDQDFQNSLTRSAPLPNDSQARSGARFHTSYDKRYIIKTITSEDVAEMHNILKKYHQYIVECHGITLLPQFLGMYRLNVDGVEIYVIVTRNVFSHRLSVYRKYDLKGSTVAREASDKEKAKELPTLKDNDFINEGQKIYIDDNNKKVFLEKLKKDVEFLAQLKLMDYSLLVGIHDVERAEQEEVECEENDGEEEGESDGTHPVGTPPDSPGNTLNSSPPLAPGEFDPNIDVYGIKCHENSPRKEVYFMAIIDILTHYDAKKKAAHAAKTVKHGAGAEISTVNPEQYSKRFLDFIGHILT
In outline:
as §1

Sequence of MARK3 (P27448 whole entry): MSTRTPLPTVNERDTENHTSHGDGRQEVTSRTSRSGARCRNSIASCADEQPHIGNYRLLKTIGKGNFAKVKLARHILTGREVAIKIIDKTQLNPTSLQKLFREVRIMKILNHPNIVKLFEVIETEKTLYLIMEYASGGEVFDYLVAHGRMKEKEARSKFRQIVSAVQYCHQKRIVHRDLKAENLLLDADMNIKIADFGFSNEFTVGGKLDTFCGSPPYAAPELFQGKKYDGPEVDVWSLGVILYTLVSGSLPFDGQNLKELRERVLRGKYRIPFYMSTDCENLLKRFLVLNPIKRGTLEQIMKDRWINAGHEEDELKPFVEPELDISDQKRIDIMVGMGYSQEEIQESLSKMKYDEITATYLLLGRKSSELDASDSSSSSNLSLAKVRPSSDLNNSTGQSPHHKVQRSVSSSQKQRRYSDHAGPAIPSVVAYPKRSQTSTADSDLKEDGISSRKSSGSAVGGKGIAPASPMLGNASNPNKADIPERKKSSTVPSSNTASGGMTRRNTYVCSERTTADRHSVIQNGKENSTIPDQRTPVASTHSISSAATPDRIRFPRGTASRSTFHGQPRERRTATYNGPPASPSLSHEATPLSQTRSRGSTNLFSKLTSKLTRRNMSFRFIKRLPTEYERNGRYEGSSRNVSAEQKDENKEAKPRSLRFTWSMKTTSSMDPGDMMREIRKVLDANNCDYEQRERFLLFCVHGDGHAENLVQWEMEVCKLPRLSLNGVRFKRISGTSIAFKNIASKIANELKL
Sequence of CaMKK2 (Q96RR4 whole entry): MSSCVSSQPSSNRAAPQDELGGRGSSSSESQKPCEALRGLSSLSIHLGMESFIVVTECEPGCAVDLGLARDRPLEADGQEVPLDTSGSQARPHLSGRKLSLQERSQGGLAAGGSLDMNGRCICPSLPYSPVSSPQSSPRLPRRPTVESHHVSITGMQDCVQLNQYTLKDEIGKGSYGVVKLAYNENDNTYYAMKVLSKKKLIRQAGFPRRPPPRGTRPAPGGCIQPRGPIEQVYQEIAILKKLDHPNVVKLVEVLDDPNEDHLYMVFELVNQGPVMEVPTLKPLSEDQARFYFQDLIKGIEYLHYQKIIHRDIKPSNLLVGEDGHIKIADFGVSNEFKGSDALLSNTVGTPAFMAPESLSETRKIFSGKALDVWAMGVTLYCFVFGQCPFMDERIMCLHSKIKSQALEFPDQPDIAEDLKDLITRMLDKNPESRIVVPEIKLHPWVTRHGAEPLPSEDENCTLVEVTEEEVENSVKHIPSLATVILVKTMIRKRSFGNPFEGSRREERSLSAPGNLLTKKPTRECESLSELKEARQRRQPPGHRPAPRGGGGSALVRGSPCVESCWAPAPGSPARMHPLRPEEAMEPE
Sequence of RSK2 (P51812 whole entry): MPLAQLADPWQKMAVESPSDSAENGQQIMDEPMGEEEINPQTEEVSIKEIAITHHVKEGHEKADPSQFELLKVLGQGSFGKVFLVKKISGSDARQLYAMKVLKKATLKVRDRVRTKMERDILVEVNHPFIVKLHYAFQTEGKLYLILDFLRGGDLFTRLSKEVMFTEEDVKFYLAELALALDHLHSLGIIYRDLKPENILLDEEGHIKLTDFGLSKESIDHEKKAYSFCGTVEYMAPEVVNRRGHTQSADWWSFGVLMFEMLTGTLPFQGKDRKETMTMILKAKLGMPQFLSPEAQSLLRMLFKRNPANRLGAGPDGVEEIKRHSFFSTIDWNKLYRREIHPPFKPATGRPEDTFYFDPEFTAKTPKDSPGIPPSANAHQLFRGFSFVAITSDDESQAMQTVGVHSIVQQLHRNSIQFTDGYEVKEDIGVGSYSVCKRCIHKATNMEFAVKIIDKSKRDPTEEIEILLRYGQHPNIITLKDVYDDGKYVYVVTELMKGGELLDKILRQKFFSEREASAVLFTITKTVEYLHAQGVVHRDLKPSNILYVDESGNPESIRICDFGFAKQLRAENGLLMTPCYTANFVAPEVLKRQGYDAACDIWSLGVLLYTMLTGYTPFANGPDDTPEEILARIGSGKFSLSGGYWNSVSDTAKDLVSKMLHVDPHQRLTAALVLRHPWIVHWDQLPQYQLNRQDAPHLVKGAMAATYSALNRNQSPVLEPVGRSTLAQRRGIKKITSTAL
Sequence of MAP3K4 (Q9Y6R4 whole entry): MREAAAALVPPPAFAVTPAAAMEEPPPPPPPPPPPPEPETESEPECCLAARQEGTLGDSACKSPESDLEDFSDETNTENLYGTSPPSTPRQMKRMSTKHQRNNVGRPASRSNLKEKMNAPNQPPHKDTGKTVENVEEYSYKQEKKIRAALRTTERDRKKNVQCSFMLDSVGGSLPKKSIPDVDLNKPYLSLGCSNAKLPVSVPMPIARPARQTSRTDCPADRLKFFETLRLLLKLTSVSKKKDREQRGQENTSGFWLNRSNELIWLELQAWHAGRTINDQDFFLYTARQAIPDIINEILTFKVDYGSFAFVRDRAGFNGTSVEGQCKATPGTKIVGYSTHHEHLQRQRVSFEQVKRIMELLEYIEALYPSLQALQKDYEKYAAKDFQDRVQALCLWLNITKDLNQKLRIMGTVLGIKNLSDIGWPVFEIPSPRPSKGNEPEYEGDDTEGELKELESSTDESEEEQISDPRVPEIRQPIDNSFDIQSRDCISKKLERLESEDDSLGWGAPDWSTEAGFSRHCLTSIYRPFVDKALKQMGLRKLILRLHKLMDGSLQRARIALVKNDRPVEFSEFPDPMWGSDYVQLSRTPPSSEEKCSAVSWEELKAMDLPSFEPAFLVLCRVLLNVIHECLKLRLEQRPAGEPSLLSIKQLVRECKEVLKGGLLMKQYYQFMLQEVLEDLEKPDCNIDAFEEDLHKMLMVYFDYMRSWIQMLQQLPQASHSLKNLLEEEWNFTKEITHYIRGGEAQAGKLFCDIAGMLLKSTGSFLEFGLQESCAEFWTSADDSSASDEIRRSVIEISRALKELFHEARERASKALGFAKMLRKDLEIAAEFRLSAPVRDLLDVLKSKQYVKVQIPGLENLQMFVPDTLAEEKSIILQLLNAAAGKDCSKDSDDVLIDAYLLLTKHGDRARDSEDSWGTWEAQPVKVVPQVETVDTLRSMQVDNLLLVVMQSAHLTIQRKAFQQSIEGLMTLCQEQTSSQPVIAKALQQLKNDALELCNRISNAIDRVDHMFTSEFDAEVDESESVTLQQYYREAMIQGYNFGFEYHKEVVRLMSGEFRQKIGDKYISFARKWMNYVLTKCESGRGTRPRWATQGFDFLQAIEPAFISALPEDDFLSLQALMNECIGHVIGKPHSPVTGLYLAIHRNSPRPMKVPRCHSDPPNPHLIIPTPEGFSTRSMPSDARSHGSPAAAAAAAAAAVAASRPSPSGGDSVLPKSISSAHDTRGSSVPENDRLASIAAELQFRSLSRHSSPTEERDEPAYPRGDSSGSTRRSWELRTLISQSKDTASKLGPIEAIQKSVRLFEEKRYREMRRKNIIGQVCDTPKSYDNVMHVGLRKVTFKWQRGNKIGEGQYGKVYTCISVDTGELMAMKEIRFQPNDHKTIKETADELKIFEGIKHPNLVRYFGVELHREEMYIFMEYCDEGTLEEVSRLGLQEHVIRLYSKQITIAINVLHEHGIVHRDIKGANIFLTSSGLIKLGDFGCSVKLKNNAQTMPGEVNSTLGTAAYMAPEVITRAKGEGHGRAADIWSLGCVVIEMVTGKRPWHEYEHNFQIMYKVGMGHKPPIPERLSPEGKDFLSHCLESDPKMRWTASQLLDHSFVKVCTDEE

On to `CS(=O)(=O)Nc1ccccc1Nc1nc(Nc2cccc(OCCN)c2)ncc1Cl` [CZC31326, N-(2-(2-(3-(2-aminoethoxy)phenylamino)-5-chloropyrimidin-4-ylamino)phenyl)methanesulfonamide], for which the inhibition at 10 µM in assay [1] is 98.1%; in assay [2] it was 96.7%; in assay [3], 97.2%; in assay [4], 94.8%; in assay [5], 97.2%; in assay [6], 97.6%.
